Data set [1] is described as follows: Solubility of the compound in water. Type of data set: physicochemical. As to conditions: buffer.
The test system of data set [2] is Streptococcus mutans. Briefly: Inhibition of planktonic growth of Streptococcus mutans ATCC 25175 up to 96 ug/mL after 24 hrs relative to control. The data set is classed as organism-based.
For data set [3], the system named is Listeria monocytogenes. Kind of data set: Growth inhibition of Listeria monocytogenes WSLC 1001 incubated for 24 hrs under aerobic condition by microdilution method. The data set is classed as organism-based. As to conditions: in vitro. (In general: Broth dilution looks for growth in wells or tubes with falling amounts of substance.)
Data set [4] relates to Fusobacterium nucleatum. Briefly: Antibiofilm activity against Fusobacterium nucleatum ATCC 25586 assessed as inhibition of biofilm formation up to 96 ug/mL after 24 hrs by crystal violet staining based assay. The data set is classed as functional, organism-based.
For data set [5], the system named is Porphyromonas gingivalis. Briefly: Antibiofilm activity against Porphyromonas gingivalis ATCC 33277 assessed as inhibition of biofilm formation up to 96 ug/mL after 24 hrs by crystal violet staining based assay. The data set is classed as functional, organism-based.
Data set [6] concerns Candida albicans. Briefly: Antiadherence activity against FITC-labelled Candida albicans ATCC 28366 assessed as reduction in bacterial adhesion to hydroxylapatite at 3 ug/mL after 1 hr by fluorescence assay. Type of data set: functional, organism-based.
Data set [7] deals with Staphylococcus aureus. Briefly: Growth inhibition of Staphylococcus aureus ATCC 6538 incubated for 24 hrs under aerobic condition by microdilution method. Type of data set: organism-based. As to conditions: in vitro.
For data set [8], the system named is Pseudomonas aeruginosa. Briefly: Growth inhibition of Pseudomonas aeruginosa ATCC 10145 incubated for 24 hrs under aerobic condition by microdilution method. Type of data set: organism-based.
The subject of data set [9] is Escherichia coli. Kind of data set: Growth inhibition of Escherichia coli ATCC 15939 incubated for 24 hrs under aerobic condition by microdilution method. Type of data set: organism-based.
Data set [10] relates to Streptococcus mutans. Briefly: Antiadherence activity in FITC-labelled Streptococcus mutans ATCC 25175 assessed as reduction of bacterial adhesion to hydroxylapatite at 96 ug/mL after 1 hr by fluorescence assay. Type of data set: functional. Also noted: scale not given: the % may be the effect or the level left.
Data set [11] has as its system Streptococcus mutans. Kind of data set: Antiadherence activity in FITC-labelled Streptococcus mutans ATCC 25175 assessed as reduction in bacterial adhesion to hydroxylapatite at 3 ug/mL after 1 hr fluorescence assay. Type of data set: functional, organism-based.
Data set [12] concerns Candida albicans. Kind of data set: Antiadherence activity in FITC-labelled Candida albicans ATCC 28366 assessed as reduction of bacterial adhesion to hydroxylapatite at 96 ug/mL after 1 hr by fluorescence assay relative to control. Type of data set: functional. More on the design: scale not given: the % may be the effect or the level left.
Data set [13] concerns Streptococcus mutans. Briefly: Antibiofilm activity against Streptococcus mutans ATCC 25175 assessed as inhibition of biofilm formation up to 96 ug/mL after 24 hrs by crystal violet staining-based assay. The data set is classed as functional, organism-based.
Data set [14] deals with Limosilactobacillus fermentum. Kind of data set: Antibiofilm activity against Lactobacillus fermentum LacB1 assessed as inhibition of biofilm formation up to 96 ug/mL after 24 hrs by crystal violet staining based assay. Type of data set: functional, organism-based.
Data set [15] deals with Candida albicans. Kind of data set: Antiadherence activity against FITC-labelled Candida albicans ATCC 28366 assessed as reduction in bacterial adhesion to hydroxylapatite up to 96 ug/mL after 1 hr by fluorescence assay relative to control. The data set is classed as functional.
Data set [16] has as its target Mu-type opioid receptor (Rattus norvegicus) (UniProt P33535). Briefly: Displacement of [3H]DAMGO from mu-opioid receptor in Long-Evans rat brain after 1 hr by liquid scintillation counting method. Type of data set: tissue-based. (In general: In a radioligand displacement assay an active substance lowers the binding of a labelled ligand.)
The subject of data set [17] is A549. Kind of data set: Growth inhibition of human A549 cells. Type of data set: functional, cell-based.
For data set [18], the system named is Actinomyces naeslundii. Briefly: Antibiofilm activity against Actinomyces naeslundii ATCC 49340 assessed as reduction in biofilm formation up to 96 ug/mL after 24 hrs by crystal violet staining-based assay. Type of data set: functional, organism-based.
The test system of data set [19] is Candida albicans. Kind of data set: Antibiofilm activity against Candida albicans ATCC 28366 assessed as reduction of biofilm formation up to 96 ug/mL after 24 hrs by crystal violet staining based assay. Type of data set: functional, organism-based.
In data set [20] the test system is Candida albicans. Kind of data set: Growth inhibition of Candida albicans ATCC 28366 up to 96 ug/ml measured after 24 hrs by microdilution method. The data set is classed as organism-based. As to conditions: in vitro.
In data set [21] the test system is Streptococcus mutans. Kind of data set: Inhibition of planktonic growth of Streptococcus mutans ATCC 25175 at 96 ug/mL measured after 24 hrs relative to control. Type of data set: organism-based.
Data set [22] relates to Fibroblast. Kind of data set: Cytotoxicity against human fibroblasts. The data set is classed as cell-based.
Data set [23] deals with Pseudomonas aeruginosa. Kind of data set: Antibacterial activity against Pseudomonas aeruginosa MTCC 2642 measured after 24 hrs by broth dilution method. The data set is classed as functional. As to conditions: MTCC 2642, 24 h.
The subject of data set [24] is Escherichia coli. Briefly: Antibacterial activity against Escherichia coli MTCC 2622 measured after 24 hrs by broth dilution method. As to conditions: MTCC 2622, 24 h. The data set is classed as functional.
Data set [25] has as its system Streptococcus mutans. Kind of data set: Inhibition of planktonic growth of Streptococcus mutans ATCC 25175 at MIC> 192 ug/mL after 24 hrs relative to control. The data set is classed as organism-based.
Data set [26] relates to Staphylococcus aureus. Kind of data set: Antibacterial activity against Staphylococcus aureus MTCC 902 measured after 24 hrs by broth dilution method. The data set is classed as functional. As to conditions: MTCC 902, 24 h.

A word on the IC50: it is the point on the concentration scale where inhibition reaches its midpoint.

≈ marks a conversion by molar mass, not a printed value. Calls of active or inactive are those of the source. Unless noted, the rule behind the calls is not given here. Bounds are passed on as bounds.

Mu-type opioid receptor (Rattus norvegicus), sequence (P33535 whole entry): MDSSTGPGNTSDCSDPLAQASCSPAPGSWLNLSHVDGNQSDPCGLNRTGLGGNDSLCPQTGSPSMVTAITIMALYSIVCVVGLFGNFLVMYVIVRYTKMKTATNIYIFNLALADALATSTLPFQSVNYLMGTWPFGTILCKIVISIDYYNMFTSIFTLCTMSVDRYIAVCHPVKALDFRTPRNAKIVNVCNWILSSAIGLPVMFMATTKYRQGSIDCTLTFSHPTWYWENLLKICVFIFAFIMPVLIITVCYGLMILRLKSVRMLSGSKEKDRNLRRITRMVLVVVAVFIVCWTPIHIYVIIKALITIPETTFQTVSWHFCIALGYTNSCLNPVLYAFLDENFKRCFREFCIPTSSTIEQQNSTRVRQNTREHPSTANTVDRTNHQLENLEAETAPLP

Regarding `O=C1N[C@H](Cc2ccc(OCc3ccccc3)cc2)C(=O)N[C@H]1Cc1ccc(OCc2ccccc2)cc1`, the solubility result in data set [1] is listed as “Insoluble”. The “growth inhibition (GI)” value in data set [2] is “Non-Toxic”. In addition, the MIC in data set [3], in data set [7], in data set [8] and in [9] was over 192 µg/mL throughout. Moreover, the inhibition entry in [4], in [5], in data set [13] and in data set [14] was “inactive” each time. Also, the outcome in [6] and in data set [11] was inactive. Further, the Activity in data set [10] amounted to 82%; in data set [12], 53%.

Take `O=C1N[C@@H](Cc2ccc(O)cc2)C(=O)N[C@H]1Cc1ccccc1`: the outcome in [15] and in data set [18] was inactive. In addition, the outcome in [16] and in data set [19] was Active. For the same compound, the “growth inhibition (GI)” value in [2] is “Toxic”; in data set [20], “Non-Toxic”. Moreover, the MIC in [3], in data set [7], in data set [8] and in data set [9] was over 192 µg/mL each time. In [17], the half-inhibitory concentration (IC50) came to 10 µM. In addition, the inhibition result in data set [4], in data set [5], in [13] and in data set [14] was “inactive” in each case. Also, the “inhibition (INH)” value in data set [21] is recorded as 20%. Besides, in data set [22], the Activity result was “Non-Toxic”.

As for `O=C1N[C@H](Cc2ccc(O)cc2)C(=O)N[C@@H]1Cc1ccccc1`, the result in [15] and in data set [18] was inactive. Moreover, the MIC was 32 µg/mL (≈ 103 µM) in [23]; 64 µg/mL (≈ 206 µM) in data set [24]; over 192 µg/mL in data set [3]; over 192 µg/mL in data set [7]; over 192 µg/mL in [8]; over 192 µg/mL in data set [9]. The MIC in data set [26] came out at 16 µg/mL (≈ 51.6 µM). Also, the “growth inhibition (GI)” value in [2] is “Toxic”; in data set [20] it was “Non-Toxic”. Further, the inhibition entry in data set [4], in data set [5], in [13] and in [14] was “inactive” in each case. Also, in [19], the outcome was Active. Also, in data set [25], the “inhibition (INH)” value was determined as 20%. Also, the Activity entry in data set [22] is “Non-Toxic”.

(Values after ChEMBL document CHEMBL4340502, “Anti-biofilm and anti-adherence properties of novel cyclic dipeptides against oral pathogens” (Bioorg Med Chem, 2019).)
